# Experimental data taken from paper PMC8781304, “Arene-Ruthenium(II) Complexes with Carbothiamidopyrazoles as a Potential Alternative for Antibiotic Resistance in Human” (Molecules, 2022).
# What was measured:
# S. aureus ATCC 29213 = test: Time-kill test; format: cell-based, Staphylococcus aureus; conditions: 1 × MIC
# Protocol: (§1) The time-kill experiments were performed as described previously. Briefly, inocula were prepared in TSB medium (TSB; […] BTL Sp. z o.o., Łódź, Poland). All samples were incubated at 35 °C and 80 rpm for varied time intervals (2, 4, 6, 12, 18, 24, 48h). The percentage of dead cells was calculated according to the growth control by determining the number of living cells (CFU/mL) of each tube using the agar plate count method. Samples were immediately serially diluted ten-fold in 0.01 M phosphate buffered saline (PBS, Bimed Lublin S.A., Lublin, Poland) at pH 7.0 and 10 μL aliquots were spot-inoculated in duplicate onto MHA plates. Agar plates were incubated at 37 °C overnight before determining the viable count. Two independent experiments were carried out.
# [1] = test system: S. epidermidis ATCC 12228; test: Time-kill test; format: cell-based, Staphylococcus epidermidis; conditions: 1 × MIC
# Protocol: as §1
# [2] = test system: S. epidermidis ATCC 12228; test: Cell lysis (bacteriolysis, OD600); format: cell-based, Staphylococcus epidermidis; conditions: 1 × MBC
# [3] = test system: Staphylococcus epidermidis ATCC 12228; test: Fluorescence microscopy, Hoechst 33258 / propidium iodide viability; format: cell-based; conditions: S. epidermidis ATCC 12228; MIC concentration, 24 h
# Protocol: (§2) Staphylococcus aureus ATCC 29213 and Staphylococcus epidermidis ATCC 12228 strains were treated with tested compounds 2a–2d and 3a–3d at a concentration 1 × MIC for 24h, while untreated cells were used as a growth control. After incubation, the cells were harvested and a suspension of 1 × 10^5 cells/mL in PBS was prepared. Following this, 1 µl of the fluorescent dyes Hoechst 33258 and propidium iodide (15 µg/mL each) (Sigma, St. Louis, MO, USA) were added. The obtained mixture was incubated in the dark at room temperature for 15–20 min. After incubation, the cell suspensions, placed on glass slides, were analyzed under an Olympus IX 70 fluorescence microscope (Shinjuku, Tokyo, Japan), using a 360–370 nm UV filter. Photos were taken at 10 × 20 magnification.
# [4] = test system: Staphylococcus aureus ATCC 29213; test: as above; format: cell-based; conditions: S. aureus ATCC 29213; MIC concentration, 24 h
# Protocol: as §2
compound,measurement,setting,value
Cc1cc(C)[n+]2n1C(N)=[S+][Ru-]2[Cl].Cc1ccc(C(C)C)cc1.F[P-](F)(F)(F)(F)F [Compound 3a],Time-kill: bacteriostatic or bactericidal,S. aureus ATCC 29213,bacteriostatic
same,Time-kill: bacteriostatic or bactericidal,[1],bacteriostatic
same,"Cell lysis, change of OD600",[2],not found to change OD600 values
same,Change in bacterial viability (Hoechst 33258 / PI fluorescence),[3],Less changes in cell survival
same,Change in bacterial viability (Hoechst 33258 / PI fluorescence),[4],Less changes in cell survival
CCc1cc(CC)[n+]2n1C(N)=[S+][Ru-]2[Cl].Cc1ccc(C(C)C)cc1.F[P-](F)(F)(F)(F)F [Compound 3b],Time-kill: bacteriostatic or bactericidal,S. aureus ATCC 29213,bacteriostatic
same,Time-kill: bacteriostatic or bactericidal,[1],bacteriostatic
same,"Cell lysis, change of OD600",[2],not found to change OD600 values
same,Change in bacterial viability (Hoechst 33258 / PI fluorescence),[3],Less changes in cell survival
same,Change in bacterial viability (Hoechst 33258 / PI fluorescence),[4],Less changes in cell survival
[(η^6-p-cymene)Ru(1-[amino(thioxo)methyl]-5-hydroxy-3-phenyl-1H-pyrazole)PF6 [Compound 3c],Time-kill: bacteriostatic or bactericidal,S. aureus ATCC 29213,bacteriostatic
same,Time-kill: bacteriostatic or bactericidal,[1],bactericidal
same,"Cell lysis, change of OD600",[2],quite moderate decrease in OD600
same,Change in bacterial viability (Hoechst 33258 / PI fluorescence),[3],greatest changes in bacterial viability
same,Change in bacterial viability (Hoechst 33258 / PI fluorescence),[4],greatest changes in bacterial viability
